# PMC9611521, “Optimization of Resveratrol Used as a Scaffold to Design Histone Deacetylase (HDAC-1 and HDAC-2) Inhibitors” (Pharmaceuticals, 2022)
# How the values were obtained:
# Format in all cases: biochemical
# HDAC-4 = HDAC-4 (Homo sapiens, UniProt P56524); test: Enzymatic HDAC selectivity panel, HDAC-4; details: compound at 10 µM
# Description: (§1) Enzymatic assays to evaluate HDAC inhibition were performed, and the design involved three steps: (a) Preliminary screening to identify the most promising compounds; (b) Evaluation by a panel of HDAC isoforms to investigate selectivity; and (c) Determination of IC50 values. Firstly, compounds (4–7; 15–26) were evaluated at 10 µM against HDAC-1 and HDAC-2 (Table 2).
# (§2) The enzymatic assay to evaluate HDAC inhibitory effects for all final compounds against the distinct isoforms was carried out in accordance with the previously described procedures (Lopes et al., 2021). All compounds were initially screened at 10 µM against HDAC-1 and HDAC-2. […] All the compounds were dissolved in DMSO. A serial dilution of the compounds was performed in 100% DMSO with the highest concentration at 1 mM. Each intermediate compound dilution (in 100% DMSO) was diluted 10x in assay buffer to form a 10% DMSO intermediate dilution in HDAC assay buffer. 5 µL of this dilution was added to a 50 µL reaction to bring the final concentration of DMSO to 1% in all the reactions. […] The fluorescence intensity was measured at an excitation of 360 nm and emission of 460 nm using a Tecan Infinite M1000 microplate reader, and the percentage of activity was calculated using the formula: % activity = (F − Fb)/(Ft − Fb), where F = the intensity of fluorescence in the presence of the compound. […]
# HDAC-7 = target: T1, HDAC-7 (Homo sapiens, UniProt Q8WUI4); test: Enzymatic HDAC selectivity panel, HDAC-7; details: compound at 10 µM
# T1 sequence (Q8WUI4 1-952): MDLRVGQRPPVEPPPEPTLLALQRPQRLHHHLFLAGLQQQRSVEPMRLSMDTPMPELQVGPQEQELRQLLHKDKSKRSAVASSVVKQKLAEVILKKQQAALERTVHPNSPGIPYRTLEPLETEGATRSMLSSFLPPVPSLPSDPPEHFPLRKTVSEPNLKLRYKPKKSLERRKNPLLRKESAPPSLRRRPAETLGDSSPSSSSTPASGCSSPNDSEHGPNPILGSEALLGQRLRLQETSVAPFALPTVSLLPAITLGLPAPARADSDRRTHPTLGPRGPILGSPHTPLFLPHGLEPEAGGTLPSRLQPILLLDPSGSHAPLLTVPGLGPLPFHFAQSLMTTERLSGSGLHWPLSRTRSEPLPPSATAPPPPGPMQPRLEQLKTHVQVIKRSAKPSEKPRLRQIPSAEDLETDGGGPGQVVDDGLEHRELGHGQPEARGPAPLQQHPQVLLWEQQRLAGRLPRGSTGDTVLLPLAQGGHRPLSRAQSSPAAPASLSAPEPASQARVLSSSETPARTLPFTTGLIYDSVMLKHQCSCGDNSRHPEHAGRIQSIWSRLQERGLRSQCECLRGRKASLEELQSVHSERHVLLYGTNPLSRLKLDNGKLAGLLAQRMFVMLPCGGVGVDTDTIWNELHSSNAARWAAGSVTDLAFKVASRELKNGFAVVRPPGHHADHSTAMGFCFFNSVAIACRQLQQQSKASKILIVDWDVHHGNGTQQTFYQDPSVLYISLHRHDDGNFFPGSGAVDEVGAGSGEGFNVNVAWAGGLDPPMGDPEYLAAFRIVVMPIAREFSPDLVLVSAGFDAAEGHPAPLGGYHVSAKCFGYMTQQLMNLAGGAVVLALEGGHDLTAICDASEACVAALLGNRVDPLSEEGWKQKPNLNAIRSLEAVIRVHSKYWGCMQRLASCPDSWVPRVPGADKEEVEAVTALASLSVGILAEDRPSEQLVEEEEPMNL
# Description: as §1, §2
# HDAC-10 = target: T2, HDAC-10 (Homo sapiens, UniProt Q969S8); test: Enzymatic HDAC selectivity panel, HDAC-10; details: compound at 10 µM
# T2 sequence (Q969S8 1-669): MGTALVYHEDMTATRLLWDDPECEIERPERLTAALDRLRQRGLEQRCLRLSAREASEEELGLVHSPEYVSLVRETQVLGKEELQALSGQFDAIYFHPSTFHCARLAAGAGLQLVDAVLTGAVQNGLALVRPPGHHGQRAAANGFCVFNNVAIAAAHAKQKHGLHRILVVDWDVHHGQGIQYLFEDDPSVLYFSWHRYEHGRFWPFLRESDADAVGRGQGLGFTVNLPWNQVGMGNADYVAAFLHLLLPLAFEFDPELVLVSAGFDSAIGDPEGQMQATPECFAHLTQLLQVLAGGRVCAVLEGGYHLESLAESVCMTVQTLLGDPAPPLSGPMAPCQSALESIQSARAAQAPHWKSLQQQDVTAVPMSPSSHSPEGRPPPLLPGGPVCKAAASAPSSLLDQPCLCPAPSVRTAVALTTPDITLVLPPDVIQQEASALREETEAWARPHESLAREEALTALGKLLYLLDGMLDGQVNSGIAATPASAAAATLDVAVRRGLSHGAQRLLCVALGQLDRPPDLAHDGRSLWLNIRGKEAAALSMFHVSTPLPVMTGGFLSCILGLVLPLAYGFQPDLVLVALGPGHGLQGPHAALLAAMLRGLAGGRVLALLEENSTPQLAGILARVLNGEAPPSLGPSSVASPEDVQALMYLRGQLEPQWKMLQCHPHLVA
# Description: as §1, §2
# HDAC-1 = HDAC-1 (Homo sapiens, UniProt Q13547); test: Enzymatic HDAC inhibition assay (fluorescence), HDAC-1
# Description: as §1
# (§3) The enzymatic assay to evaluate HDAC inhibitory effects for all final compounds against the distinct isoforms was carried out in accordance with the previously described procedures (Lopes et al., 2021). All compounds were initially screened at 10 µM against HDAC-1 and HDAC-2. […] All the compounds were dissolved in DMSO. A serial dilution of the compounds was performed in 100% DMSO with the highest concentration at 1 mM. Each intermediate compound dilution (in 100% DMSO) was diluted 10x in assay buffer to form a 10% DMSO intermediate dilution in HDAC assay buffer. 5 µL of this dilution was added to a 50 µL reaction to bring the final concentration of DMSO to 1% in all the reactions. Three independent experiments were carried out in triplicate for all experiments. The fluorescence intensity was measured at an excitation of 360 nm and emission of 460 nm using a Tecan Infinite M1000 microplate reader, and the percentage of activity was calculated using the formula: % activity = (F − Fb)/(Ft − Fb), where F = the intensity of fluorescence in the presence of the compound. In the absence of the test compound, the fluorescent intensity (Ft) in each dataset was defined as 100% activity, while in the absence of HDAC, the fluorescent intensity (Fb) in each dataset was set to 0% activity.
# HDAC-3 = HDAC-3 (Homo sapiens, UniProt O15379); test: Enzymatic HDAC selectivity panel, HDAC-3; details: compound at 10 µM
# Description: as §1, §2
# HDAC-5 = HDAC-5 (Homo sapiens, UniProt Q9UQL6); test: Enzymatic HDAC selectivity panel, HDAC-5; details: compound at 10 µM
# Description: as §1, §2
# HDAC-2 = HDAC-2 (Homo sapiens, UniProt Q92769); test: Enzymatic HDAC inhibition assay (fluorescence), HDAC-2
# Description: as §1, §3
# HDAC-2, sequence (Q92769 whole entry): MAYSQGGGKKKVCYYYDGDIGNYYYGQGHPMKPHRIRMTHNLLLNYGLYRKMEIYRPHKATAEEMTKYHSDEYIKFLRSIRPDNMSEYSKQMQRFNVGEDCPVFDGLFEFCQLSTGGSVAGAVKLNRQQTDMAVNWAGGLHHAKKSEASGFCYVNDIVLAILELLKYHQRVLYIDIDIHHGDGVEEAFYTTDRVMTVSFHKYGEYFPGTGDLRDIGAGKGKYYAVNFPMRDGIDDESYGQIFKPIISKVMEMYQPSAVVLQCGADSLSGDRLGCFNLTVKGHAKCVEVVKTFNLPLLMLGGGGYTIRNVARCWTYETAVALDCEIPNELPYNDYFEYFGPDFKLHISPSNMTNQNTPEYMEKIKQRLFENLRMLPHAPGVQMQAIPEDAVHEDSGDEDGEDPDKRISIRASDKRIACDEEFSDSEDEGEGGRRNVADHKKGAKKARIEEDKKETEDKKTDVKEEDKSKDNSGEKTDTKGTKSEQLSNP
# HDAC-1, sequence (Q13547 whole entry): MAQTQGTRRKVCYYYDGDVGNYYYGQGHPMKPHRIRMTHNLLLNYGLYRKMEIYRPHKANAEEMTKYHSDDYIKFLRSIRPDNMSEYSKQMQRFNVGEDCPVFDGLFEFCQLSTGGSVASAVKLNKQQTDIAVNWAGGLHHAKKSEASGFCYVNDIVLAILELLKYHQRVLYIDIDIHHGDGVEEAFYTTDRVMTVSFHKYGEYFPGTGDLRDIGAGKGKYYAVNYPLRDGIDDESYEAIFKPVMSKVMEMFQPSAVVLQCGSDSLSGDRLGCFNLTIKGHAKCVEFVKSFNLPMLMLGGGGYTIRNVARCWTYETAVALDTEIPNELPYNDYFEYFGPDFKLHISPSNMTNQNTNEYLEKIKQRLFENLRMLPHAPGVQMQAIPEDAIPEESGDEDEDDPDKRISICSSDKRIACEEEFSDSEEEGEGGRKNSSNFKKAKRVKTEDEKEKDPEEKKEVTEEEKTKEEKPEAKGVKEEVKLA
# HDAC-4, sequence (P56524 whole entry, canonical isoform): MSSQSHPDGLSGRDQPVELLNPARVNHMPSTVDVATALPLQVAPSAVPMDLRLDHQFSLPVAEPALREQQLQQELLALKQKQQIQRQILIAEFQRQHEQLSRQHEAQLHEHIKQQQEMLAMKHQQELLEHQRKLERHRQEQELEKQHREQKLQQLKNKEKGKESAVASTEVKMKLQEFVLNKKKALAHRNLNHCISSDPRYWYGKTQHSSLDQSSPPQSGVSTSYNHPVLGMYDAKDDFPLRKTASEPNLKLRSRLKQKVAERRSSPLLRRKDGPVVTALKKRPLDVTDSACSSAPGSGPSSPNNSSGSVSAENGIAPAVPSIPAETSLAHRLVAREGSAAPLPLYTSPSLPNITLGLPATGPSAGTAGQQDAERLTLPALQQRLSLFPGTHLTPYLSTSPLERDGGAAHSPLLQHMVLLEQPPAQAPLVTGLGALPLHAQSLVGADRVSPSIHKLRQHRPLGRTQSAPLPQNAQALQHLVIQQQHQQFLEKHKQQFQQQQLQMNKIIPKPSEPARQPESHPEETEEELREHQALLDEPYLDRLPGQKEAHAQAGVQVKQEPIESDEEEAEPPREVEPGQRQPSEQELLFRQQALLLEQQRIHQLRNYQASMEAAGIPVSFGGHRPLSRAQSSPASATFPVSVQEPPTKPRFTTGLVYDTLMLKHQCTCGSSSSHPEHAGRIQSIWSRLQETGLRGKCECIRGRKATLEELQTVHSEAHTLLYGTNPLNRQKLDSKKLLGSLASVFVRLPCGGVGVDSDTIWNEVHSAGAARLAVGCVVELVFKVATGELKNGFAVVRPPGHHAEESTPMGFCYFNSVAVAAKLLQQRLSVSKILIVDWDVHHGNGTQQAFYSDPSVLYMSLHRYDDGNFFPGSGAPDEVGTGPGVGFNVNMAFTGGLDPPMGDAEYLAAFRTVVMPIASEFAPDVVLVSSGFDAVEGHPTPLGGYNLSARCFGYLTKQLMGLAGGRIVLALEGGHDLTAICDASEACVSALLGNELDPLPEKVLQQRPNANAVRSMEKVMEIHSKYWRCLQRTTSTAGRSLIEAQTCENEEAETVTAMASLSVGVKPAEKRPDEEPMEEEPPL
# HDAC-3, sequence (O15379 whole entry): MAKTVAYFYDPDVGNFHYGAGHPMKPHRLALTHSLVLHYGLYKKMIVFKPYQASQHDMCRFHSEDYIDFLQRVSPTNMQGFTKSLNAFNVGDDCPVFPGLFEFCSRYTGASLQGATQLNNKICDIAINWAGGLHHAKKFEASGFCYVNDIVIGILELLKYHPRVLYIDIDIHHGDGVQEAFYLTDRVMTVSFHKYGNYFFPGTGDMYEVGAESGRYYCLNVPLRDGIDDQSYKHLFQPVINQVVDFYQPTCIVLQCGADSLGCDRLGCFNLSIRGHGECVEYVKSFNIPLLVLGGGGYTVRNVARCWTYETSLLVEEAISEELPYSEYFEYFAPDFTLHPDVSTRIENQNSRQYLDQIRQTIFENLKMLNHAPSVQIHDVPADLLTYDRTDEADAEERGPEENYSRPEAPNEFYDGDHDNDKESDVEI
# HDAC-3, sequence (Q9Y618 395-489 partner limits assumed): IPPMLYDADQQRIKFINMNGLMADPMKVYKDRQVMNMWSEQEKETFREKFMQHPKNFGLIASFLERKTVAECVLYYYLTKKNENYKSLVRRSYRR
# HDAC-5, sequence (Q9UQL6 whole entry): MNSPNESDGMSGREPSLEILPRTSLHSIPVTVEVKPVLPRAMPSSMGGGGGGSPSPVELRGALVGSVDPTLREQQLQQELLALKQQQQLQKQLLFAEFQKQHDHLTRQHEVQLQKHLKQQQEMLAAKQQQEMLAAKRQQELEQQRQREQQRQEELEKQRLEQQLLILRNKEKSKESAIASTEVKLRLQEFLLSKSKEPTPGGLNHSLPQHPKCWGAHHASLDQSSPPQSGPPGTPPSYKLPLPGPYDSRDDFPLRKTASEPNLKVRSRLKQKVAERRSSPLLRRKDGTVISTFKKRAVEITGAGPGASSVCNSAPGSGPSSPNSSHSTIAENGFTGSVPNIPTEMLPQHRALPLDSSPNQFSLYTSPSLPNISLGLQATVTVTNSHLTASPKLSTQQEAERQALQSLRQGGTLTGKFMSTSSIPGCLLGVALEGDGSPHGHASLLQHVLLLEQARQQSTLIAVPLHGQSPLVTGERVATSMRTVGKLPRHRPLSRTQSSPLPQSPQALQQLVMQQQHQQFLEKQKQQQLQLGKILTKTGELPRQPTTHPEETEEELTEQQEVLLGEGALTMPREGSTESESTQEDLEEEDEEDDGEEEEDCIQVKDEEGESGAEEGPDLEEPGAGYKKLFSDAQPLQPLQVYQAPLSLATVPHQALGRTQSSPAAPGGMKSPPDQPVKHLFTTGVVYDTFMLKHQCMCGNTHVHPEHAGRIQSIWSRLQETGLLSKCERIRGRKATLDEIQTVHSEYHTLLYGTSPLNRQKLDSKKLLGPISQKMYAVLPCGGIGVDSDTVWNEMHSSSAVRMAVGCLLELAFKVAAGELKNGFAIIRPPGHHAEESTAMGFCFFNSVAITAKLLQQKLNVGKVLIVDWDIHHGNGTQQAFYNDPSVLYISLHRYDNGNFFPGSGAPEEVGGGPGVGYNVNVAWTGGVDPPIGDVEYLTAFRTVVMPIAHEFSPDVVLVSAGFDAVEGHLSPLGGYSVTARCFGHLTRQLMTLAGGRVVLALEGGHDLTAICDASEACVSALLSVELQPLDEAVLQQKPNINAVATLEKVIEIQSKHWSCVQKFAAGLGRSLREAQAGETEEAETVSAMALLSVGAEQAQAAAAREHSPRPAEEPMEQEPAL
smiles,measurement,setting,value
Nc1ccc(CCc2ccc(C(=O)Nc3ccccc3N)cc2)cc1 [Compound (5)],inhibition at 10 µM,HDAC-4,5 ± 0.4%
same,inhibition at 10 µM,HDAC-7,15 ± 0.7%
same,inhibition at 10 µM,HDAC-10,60 ± 1.4%
same,inhibition at 10 µM,HDAC-1; compound at 10 µM,92%
same,HDAC-1 inhibition,"HDAC-1; compound at 10 µM, 10 µM",93 ± 1.0%
same,IC50,HDAC-1; substrate 10 µM,440 nM
same,inhibition at 10 µM,HDAC-3,82 ± 1.2%
same,inhibition at 10 µM,HDAC-5,5 ± 0.5%
same,inhibition at 10 µM,HDAC-2; compound at 10 µM,93%
same,HDAC-2 inhibition,"HDAC-2; compound at 10 µM, 10 µM",92 ± 0.8%
same,IC50,HDAC-2; substrate 10 µM,370 nM
